Assay results published in patent publication US8445441B2, “Inhibitors of BCL-2” (Case Western Reserve University, priority 2007, dated 2013).

Assays:
[1] = system: Jurkat cells; assay: Fas-induced Ca2+-independent apoptosis; format: cell-based
[2] = biological target: T1, Bcl-2-IP3R interaction (Homo sapiens, UniProt P10415); assay: coimmunoprecipitation of Bcl-2 with IP3R from cell extracts; format: binding; set-up: expressed in transfected cells; host or cells: Bcl-2(+) WEHI7.2 cells; also Jurkat cells (endogenous Bcl-2); conditions: 400 μM peptide; Bcl-2(+) WEHI7.2 and Jurkat cell extracts
Description: FIG. 4 illustrates an IP3R Peptide Inhibits Bcl-2-IP3R Interaction but Not Bim-Bcl-2 Interaction. (A and D) IP3R was immunoprecipitated from extracts of Bcl-2(+) WEHI7.2 cells (C) or Jurkat cells in the presence of 400 μM peptides. Peptide 2, but not peptide 1 or control peptide, inhibited the Bcl-2-IP3R coimmunoprecipitation. Summary of Bcl-2 immunoblot signal intensities in three […] experiments identical to (C) (mean±SEM). (B) Bcl-2 was immunoprecipitated from Bcl-2(+) WEHI7.2 cell extracts in the presence of 400 μM peptides, and coimmunoprecipitation of Bim was detected by anti-Bim immunoblotting. […] (E) Summary of Bim immunoblot signal intensities in three experiments identical to (B) (mean±SEM).
Since the IP3R binding region was narrowed down to the 80 amino acid subdomain 3a1 (aa 1347-1426), we designed two 20 amino acid peptides (peptide 1, aa 1365-1384 (SEQ ID NO:2); peptide 2, aa 1389-1408 (SEQ ID NO:3)) based on the degree of homology in this region among different IP3R isoforms. […] The inhibitory effect of peptide 2 on Bcl-2-IP3R interaction was also detected in coimmunoprecipitation assays employing both Bcl-2(+) WEHI7.2 cells (FIGS. 4A and 4B) and Jurkat cells (FIG. 4C). […]

[3] = system: Jurkat cells; assay: IP3 ester-induced Ca2+ elevation; format: cell-based; conditions: D-myo InsP3 hexakisbutyryloxymethyl ester
From the text: To exclude the possibility that peptide 2 may interfere with the upstream TCR activation pathway, a cell-permeant IP3 ester (D-myo InsP3 hexakisbutyryloxymethyl ester) was used to bypass TCR activation and anti-CD3-induced IP3 generation.

[4] = biological target: T1, Bcl-2-IP3R interaction; assay: GST pull-down of Bcl-2 from Bcl-2(+) WEHI7.2 extracts with GST-IP3R domain 3; format: binding, mouse; set-up: expressed in transfected cells; host or cells: Bcl-2(+) WEHI7.2 cells (source of Bcl-2)
From the text: To identify where Bcl-2 interacts on the IP3R, we used a series of GST-IP3R fusion constructs corresponding to five fragments covering the first N-terminal 2216 amino acids and 1 fragment corresponding to the last 160 amino acids of mouse IP3R type 1 (FIG. 3). These fragments are located in the cytoplasm and coincide with “natural” domains generated by limited proteolysis. The transmembrane domain was not included. After purification, fragments migrated as single prominent bands corresponding to their expected molecular weights, although some minor degradation products were detected.
The first set of GST pull-down experiments utilized extracts of Bcl-2(+) WEHI7.2 cells and Jurkat cells as two independent sources of Bcl-2. Cell extracts were incubated with GST-IP3R fragments prebound to glutathione sepharose resin, with equal loading of the GST-IP3R fragments. […] These experiments were repeated a total of five times with the same result. It is important to note that, following incubation of cell extracts with GST-IP3R fragments on the glutathione sepharose resin, the resin was washed extensively.
Since the IP3R binding region was narrowed down to the 80 amino acid subdomain 3a1 (aa 1347-1426), we designed two 20 amino acid peptides (peptide 1, aa 1365-1384 (SEQ ID NO:2); peptide 2, aa 1389-1408 (SEQ ID NO:3)) based on the degree of homology in this region among different IP3R isoforms. Also, preference was given to regions that have beta-turn and/or α-helical structures, rather than random-coil or nonstructured sequences, expecting that one or both of the peptides could inhibit the Bcl-2-IP3R interaction. Furthermore, the C-terminal region of domain 3a1 was not selected because of its lower accessibility and unpredictable secondary structure (Invitrogen PeptideSelect Design Tool). The scrambled sequence of peptide 2 was also synthesized and used as a control. […] The inhibitory effect of peptide 2 on Bcl-2-IP3R interaction was also detected in coimmunoprecipitation assays employing both Bcl-2(+) WEHI7.2 cells (FIGS. 4A and 4B) and Jurkat cells (FIG. 4C). […]

[5] = system: primary chronic lymphocytic leukemia cells; assay: cell killing by trypan blue dye exclusion, combination with ABT737; format: cell-based; conditions: primary CLL cells, peptide combined with ABT737, 24 hours
From the text: FIG. 10 illustrates a graph comparing the cell death percentage of chronic lymphocytic leukemia cells treated with combinations of ABT-737 and a peptide comprising SEQ ID NO: 3 and controls.
FIG. 11 illustrates a graph comparing the cell death percentage of chronic lymphocytic leukemia cells treated with ABT-737, a peptide comprising SEQ ID NO: 3, combinations thereof, and controls.
To test this hypothesis, we performed the experiments summarized below. […] Additions were made to CLL cells and cell death measured 24 hours later.

T1 sequence (P10415 whole entry): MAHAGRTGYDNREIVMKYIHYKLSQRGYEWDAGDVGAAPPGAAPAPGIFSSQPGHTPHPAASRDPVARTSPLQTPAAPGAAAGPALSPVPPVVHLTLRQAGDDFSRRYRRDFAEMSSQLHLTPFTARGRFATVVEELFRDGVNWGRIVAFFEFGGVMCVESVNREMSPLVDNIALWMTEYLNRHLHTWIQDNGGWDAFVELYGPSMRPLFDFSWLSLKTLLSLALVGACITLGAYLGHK

NVYTEIKCNSLLPLDDIVRV (listed as Homo sapiens) [peptide 2, 20 amino acid peptide, aa 1389-1408 of IP3R subdomain 3a1]
enhancement of Fas-induced Ca2+-independent apoptosis [1]: did not enhance
inhibition of Bcl-2-IP3R coimmunoprecipitation [2]: consistently inhibited
IP3 ester-induced Ca2+ elevation [3]: enhanced
amount of Bcl-2 bound to GST-IP3R domain 3 ([4]; 200 μM peptide): significantly decreased
amount of Bcl-2 bound to GST-IP3R domain 3 ([4]; 1 mM peptide): significantly decreased
cell death induction by ABT737 [5]: enhances cell death induction
